In patent US7264932B2, “Nuclease inhibitor cocktail” (Applera Corporation, priority 1999, dated 2007):

Tests used:
[1] = tested on: total RNase activity in pancreas lysate; assay: RNaseAlert fluorescent assay, pancreas lysate; type: biochemical, mouse
Method: (§1) Flash-frozen mouse tissues (5 mg) were dounced in 50 ul of 24 mM Hepes, pH 7.2, 50 mM NaCl, 1 mM MgCl2. RNase activity was measured using Ambion's fluorescent RNaseAlert™ assay ([…] substrate, 10 ug/ml ultrapure BSA) via BMG POLARstar Optima Fluorometer according to the manufacturer's protocol. In addition to measuring total RNase activity, lysates were treated with Ap5A, heat (90 C for 10 min), or 0.5 U/ul RIP. Tissue lysate dilutions: pancreas 1:16,200; liver 1:17; thymus 1:17; kidney 1:17; spleen 1:810; lung 1:810. The data were normalized to maximum RNase activity observed in tissue lysate with kidney being the tissue with the lowest RNase activity and assigned the arbitrary unit of 1. […] However, RIP is specific to RNase A superfamily enzymes, where Ap5A, as a RNA analogue, is expected to be a more general RNase inhibitor.
Pancreatic tissue (5 mg) was dounced in 50ul of 24 mM Hepes, pH 7.2, 50 mM NaCl, 1 mM MgCl2. Diluted pancreas lysate (1:12,000) was subjected to a 1/10 volume of negatively charged SP resin. RNase activity of the clarified lysate was measured using. Ambion's fluorescent RNaseAlert™ assay (40 nM substrate, 10 ug/ml ultrapure BSA) via BMG POLARstar Optima, according to the manufacturer's instructions. Resin treatment removed >95% of total RNase activity in diluted pancreas lysate. […] In this case, inactivation is accomplished by binding of the positively-charged RNase to the negatively-charged sulfopropyl resin. Thus the RNases can be physically removed from the tissue lysate and separated from the RNA that they might otherwise degrade over time.

[2] = tested on: total RNase activity in liver lysate; assay: RNaseAlert fluorescent assay, liver lysate; type: biochemical, mouse; conditions: heated + 2.9 mM Ap5A
Method: as §1

[3] = tested on: total RNase activity in thymus lysate; assay: RNaseAlert fluorescent assay, thymus lysate; type: biochemical, mouse; conditions: heated + 2.9 mM Ap5A
Method: as §1

[4] = tested on: total RNase activity in kidney lysate; assay: RNaseAlert fluorescent assay, kidney lysate; type: biochemical, mouse; conditions: heated + 2.9 mM Ap5A
Method: as §1

diluted liver lysate = conditions: 5 mm edta, liver lysate 1:5, e. coli total rna, room temperature 5.5 min
Method: Tissues (5 mg) were dounced in 50 ul of non-denaturing, neutral ph buffer (24 mm hepes, ph 7.2, 50 mm nac1, 1 mm mgc12). Diluted tissue lysates (pancreas 1:20,000; liver 1:5) or 5 pg/ul bovine rnase a were pre-incubated with 0.2u/ul rip, 50 mm citrate or 5 mm edta for 30 sec. A total of 100 pg/ul e. Coli total rna was then added to the mixture and incubated at room temperature for an additional 4 min (FIG. 1., Lanes 1-5) or 5.5 min (lanes 6&7). […] The sample (1 ul) was analyzed by bioanalyzer 2100 after separation on an ma labchip.

RNase A [5] = assay: Salt-based inhibition of RNase activity (RNaseAlert); type: biochemical, bovine; conditions: increasing salt concentrations, fluorescence 490/520 nm
RNase A [6] = molecular target: T1, RNase A (Bos taurus, UniProt P61823); assay: Radiolabeled RNA probe degradation gel assay, RNase A; type: biochemical
T1 sequence (P61823 27-150): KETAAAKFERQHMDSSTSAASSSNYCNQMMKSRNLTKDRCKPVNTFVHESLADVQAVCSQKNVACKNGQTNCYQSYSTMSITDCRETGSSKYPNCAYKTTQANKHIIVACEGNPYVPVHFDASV
Method: (§2) The activity of an anti-nuclease cocktail is readily determined using radiolabeled RNA or DNA to detect the inhibition of nuclease by anti-nuclease antibodies in the anti-nuclease cocktail. […] Assay buffer, nuclease and an anti-nuclease cocktail are then added to 0.5 ml microfuge tubes. A mixture comprising assay buffer, RNA or DNA and radiolabeled RNA or DNA is added to the microfuge tubes, and the tubes are vortexed and microfuged. After incubation of the tubes at 37° C. for 30 minutes, a portion of the tube contents is removed and placed into gel loading buffer. After mixing, the combination is loaded onto a gel, typically a 8M urea/5% acrylamide gel, which is exposed to film.
(§3) Radiolabeled RNA was used to detect the inhibition of RNase A, RNase T1, and RNase 1 by specific antibodies.
(§4) The “MIX” was prepared by combining 10× Assay Buffer (0.9 μl/rxn), 5 mg/ml yeast RNA (0.4 μl/rxn), ^32P-labeled β actin RNA (1 μl/rxn), and nuclease-free H2O (6.7 μl/rxn), for a total of 9 μl/rxn.
(§5) 1× Assay Buffer was added first. Then Specific RNase Cocktail, Specific Anti-RNase Cocktail and MIX were added. The tubes are vortexed and microfuged, then incubated at 37° C. for 30 min (Table 9).
(§6) At the end of the incubation time, 10 μl of solution was removed from the tube and placed into 10 μl Gel Loading Buffer II. The combination was mixed thoroughly and loaded onto a 8M urea/5% acrylamide gel. The gel was exposed to film for 30 min. at −80° C. with an intensifying screen.

RNase A, 1, and T1 = assay: Anti-RNase antibodies / Specific Anti-RNase Cocktail with added non-antibody inhibitor; type: biochemical; conditions: 0.1–0.5% SDS added to cocktail
Method: as §2, §3, §4, §5, §6

diluted pancreas lysate = assay: Intactness of total RNA (RNA LabChip), diluted pancreas lysate; type: biochemical, mouse; conditions: 1% SDS, pancreatic lysate 1:20,000, mouse liver total RNA, 25 C 4 min
Method: A total of 100 pg/ul e. […].
Pancreatic lysate (0.1 mg/ml) was diluted 1:20,000 in 24 mM Hepes, pH 7.2, 50 mM NaCl, 1 mM MgCl2 and pre-incubated with either 1% SDS or 6.25 mM OVA for 30 s prior to the addition of 2 ug mouse liver total RNA. Reactions were incubated at 25 C for an additional 4 min, quenched, and analyzed on an RNA LabChip.
Mouse pancreatic tissue (5 mg) was disrupted in 50 ul of 24 mM Hepes, pH 7.2, 50 mM NaCl, 1 mM MgCl2. The diluted lysate (1:20,000) was pre-incubated with 50 uM Benzopurpurin B (BpB) for 30 sec and then added to 100 ng/ul mouse liver total RNA (Ambion) and incubated at 23 C for an additional 4 min. Samples were quenched in a guanidinium lysis buffer, and the RNA purified via MEGAclear™ MAG-96 and eluted with 20 ul nuclease-free water. […] These experiments were conducted in the same fashion except that 100 uM BpB was employed. The sample (1 ul) was analyzed by 2100 BioAnalyzer software (Agilent) after separation on an RNA LabChip.
Mouse pancreatic tissue (5 mg) was dounced in 50 ul of 24 mM Hepes, pH 7.2, 50 mM NaCl, 1 mM MgCl2. A diluted lysate (1:20,000) was pre-incubated with 100 uM BpB or the analog Benzopurpurin 4B (Bp4B) for 30 sec and then added to 100 ng/ul mouse liver total RNA (Ambion) and incubated at 23 C for an additional 4 min. Samples were quenched in a guanidinium lysis buffer, and the RNA purified via MEGAclear™ MAG-96 and eluted with 20 ul nuclease-free water. The sample (1 ul) was analyzed by 2100 BioAnalyzer software (Agilent) after separation on an RNA LabChip.
Pancreatic tissue (5 mg) was dounced in 50 ul of 24 mM Hepes, pH 7.2, 50 mM NaCl, 1 mM MgCl2. The lysate was diluted (1:20,000) and then pre-incubated with 200 uM of 467929. […] All samples were pre-incubated for 30 sec before being added to 100 ng/ul mouse liver total RNA (Ambion) and incubated at 23C for an additional 4 min. The RNA was then immediately purified via MEGAclear™ MAG-96 and eluted with 20 ul nuclease-free water. The recovered RNA (1 ul) was analyzed by 2100 BioAnalyzer software after separation on an RNA LabChip.

RNase T1 = molecular target: T2, RNase T1 (Aspergillus oryzae, UniProt P00651); assay: Radiolabeled RNA probe degradation gel assay, RNase T1; type: biochemical; conditions: 2.5 to 5 ug of heparin
T2 sequence (P00651 27-130): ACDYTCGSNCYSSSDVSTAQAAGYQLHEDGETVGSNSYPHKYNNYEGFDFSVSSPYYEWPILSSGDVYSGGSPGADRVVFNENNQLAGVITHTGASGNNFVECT
Method: The activity of anti-nuclease antibodies is readily determined using radiolabeled RNA or DNA to detect the inhibition of RNase or DNase by the anti-nuclease antibodies. In general, the nuclease and anti-nuclease antibody are separately diluted, typically in 1× assay buffer. Assay buffer, nuclease and anti-nuclease antibody are then added to 0.5 ml microfuge tubes. For assaying anti-RNase activity, a mixture comprising assay buffer, RNA and radiolabeled RNA is added to the microfuge tubes. The “MIX” of assay buffer, RNA and radiolabeled RNA is generally prepared by combining 10× Assay Buffer (0.9 μl/rxn), 5 mg/ml yeast RNA (0.4 μl/rxn), ^32-β actin RNA (1 μl/rxn), and nuclease-free H2O (6.7 μl/rxn) for a total of 9 μl/rxn. The tubes are vortexed and microfuged, then incubated at 37° C. for 30 minutes. After incubation, a portion of the tube contents is removed and placed into gel loading buffer. Then the tube contents and the gel loading buffer are mixed, and the combination is loaded onto a gel, typically a 8M urea/5% acrylamide gel, which is exposed to film. […]
The activity of an anti-nuclease cocktail is readily determined using radiolabeled RNA or DNA to detect the inhibition of nuclease by anti-nuclease antibodies in the anti-nuclease cocktail. […]

For `Nc1ncnc2c1ncn2[C@@H]1O[C@H](COP(=O)(O)OP(=O)(O)OP(=O)(O)OP(=O)(O)OP(=O)(O)OC[C@H]2O[C@@H](n3cnc4c(N)ncnc43)[C@H](O)[C@@H]2O)[C@@H](O)[C@H]1O` [Ap5A], the “% Inhibition” value ([1]; Pancreas + 232 uM Ap5A) was 44.3%, the Slope/sec ([1]; Pancreas + 232 uM Ap5A) was 13.58 and the “% Inhibition” value ([1]; Pancreas + 1.3 mM Ap5A) was 87.5%. For the same molecule, the Slope/sec ([1]; Pancreas + 1.3 mM Ap5A) was 3.05, the “% Inhibition” value ([1]; Pancreas + 2.9 mM Ap5A) was 97.7% and the Slope/sec ([1]; Pancreas + 2.9 mM Ap5A) was 0.55. For the same molecule, the “% Inhibition” value [2] was 97.2%, the Slope/sec [2] was 0.46 and the “% Inhibition” value [3] was 88.5%. For the same molecule, the Slope/sec [3] was 0.33, the “% Inhibition” value [4] was 98.9% and the Slope/sec [4] was 0.02.
In the case of `O=C(O)CN(CCN(CC(=O)O)CC(=O)O)CC(=O)O` [EDTA, ethylenediamine tetraacetic acid], the “protection of total RNA from degradation” value (diluted liver lysate) is reported as “significant protection”.
For `O=C([O-])CC(O)(CC(=O)[O-])C(=O)[O-].[Na+].[Na+].[Na+]` [NaCitrate], the “effect on RNase A activity” value (RNase A [5]) was “Inhibits”.
In the case of `[Cl-].[Na+]` [NaCl], the “effect on RNase A activity” value (RNase A [5]) is reported as “inhibits”.
For `CCCCCCCCCCCCOS(=O)(=O)[O-].[Na+]` [SDS, sodium dodecyl sulfate], the “concentration that inhibited activity of RNase A” value (RNase A [6]; 50 pg of RNase A) was 0.25% SDS inhibited activity of 50 pg of RNase A, the “effect on anti-RNase A, 1, and T1 action of Specific Anti-RNase Cocktail” value (RNase A, 1, and T1) was “Addition of 0.1–0.5% SDS to Specific Anti-RNase Cocktail strengthened anti-” and the “protection of RNA from degradation” value (diluted pancreas lysate) was “help remedy RNA degradation”.
heparin was tested, and the “effect on activity of RNases A” value (RNase A [6]; 2.5 to 5 ug of heparin) was “*This amount of heparin did not effect the activities of RNases A and Rnases T1” and the “effect on activity of Rnases T1” value (RNase T1) was “*This amount of heparin did not effect the activities of RNases A and Rnases T1”.
